Values of other authors, collected in paper PMC9669016, “First-in-human phase Ia study of the PI3Kα inhibitor CYH33 in patients with solid tumors” (Nature Communications, 2022).
≈ marks a conversion by molar mass, not a printed value.

Columns and labels:
PI3Kα and its mutants = system: PI3Kα and its mutants; design: method as in PMID 33109399; conditions: read-out: IC50 range; cited from earlier work
[1] = design: method as in Study Protocol CYH33-101 Table 2; conditions: ref Study Protocol CYH33-101 Table 2, cited from earlier work
[2] = system: EC063 esophageal cancer PDX; design: method as in Investigator's Brochure (IB) 12; conditions: 12.5 mg/kg oral for 21 days; ref Investigator's Brochure (IB) 12; cited from earlier work
[3] = system: EC074 esophageal cancer PDX; design: method as in Investigator's Brochure (IB) 12; conditions: 25 mg/kg oral for 21 days; ref Investigator's Brochure (IB) 12; cited from earlier work
[4] = system: phosphorylation of Akt and rpS6; design: method as in Investigator's Brochure (IB) 12; conditions: ref Investigator's Brochure (IB) 12, cited from earlier work
[5] = design: method as in Investigator's Brochure (IB) 12; conditions: human, without concentration dependency; ref Investigator's Brochure (IB) 12; cited from earlier work
CYP1A2 = system: CYP1A2; design: method as in Investigator's Brochure (IB) 12; conditions: up to 100 µM; ref Investigator's Brochure (IB) 12; cited from earlier work
CYP2C8 = system: CYP2C8; design: method as in Investigator's Brochure (IB) 12; conditions: up to 100 µM; ref Investigator's Brochure (IB) 12; cited from earlier work
CYP2B6 = system: CYP2B6; design: method as in Investigator's Brochure (IB) 12; conditions: up to 100 µM; ref Investigator's Brochure (IB) 12; cited from earlier work
CYP2C9 = system: CYP2C9; design: method as in Investigator's Brochure (IB) 12; conditions: up to 100 µM; ref Investigator's Brochure (IB) 12; cited from earlier work
CYP3A4 = system: CYP3A4; design: method as in Investigator's Brochure (IB) 12; conditions: up to 100 µM; ref Investigator's Brochure (IB) 12; cited from earlier work
Beagle dogs = system: Beagle dogs; design: method as in Investigator's Brochure (IB) 12; conditions: species wording unclear (Beagle dogs / rats); ref Investigator's Brochure (IB) 12; cited from earlier work
mice bone marrow = system: mice bone marrow; design: method as in Investigator's Brochure (IB) 12; conditions: ref Investigator's Brochure (IB) 12; cited from earlier work
salmonella typhimurium = conditions: cited from earlier work

For COC(=O)Nc1cc(C(F)(F)F)c(-c2nc(N3CCOCC3)c3cc(CN4CCN(S(C)(=O)=O)CC4)cn3n2)cn1 [CYH33, methyl (5-(6-((4-(methylsulfonyl)piperazin-1-yl)methyl)−4-morpholinopyrrolo[2,1-f][1,2,4]triazin-2-yl)−4-(trifluoromethyl)pyridin-2-yl)carbamate], the IC50 (PI3Kα and its mutants) is listed as 5 to 20 nM, the Solubility ([1]; in H2O) is listed as 1210 µg/mL (≈ 2020 µM) and the “Solubility, pH dependent” value ([1]; pH <3) is listed as “High solubility at pH <3”. The T/C ratio [2] was “approximately 30%”, the T/C ratio [3] was 36.78% and the “time of peak concentration in tumor tissues” value ([4]; single dose 12.5, 25, 50 mg/kg) was 2 h. For the same compound, the “phosphorylation of Akt and rpS6 in tumor tissues” value ([4]; single dose, at 0.25 h (25, 50 mg/kg) or 0.5 h (12.5 mg/kg), recovered after 8 h) was “down-regulate”, the “plasma protein binding (PPB)” value [5] was 94.9% and the “inhibition of CYP1A2” value (CYP1A2) was “did not inhibit”. For the same compound, the “inhibition of CYP2C8” value (CYP2C8) was “did not inhibit”, the “inhibition of CYP2B6” value (CYP2B6) was “did not inhibit” and the “inhibition of CYP2C9” value (CYP2C9) was “did not inhibit”. For the same compound, the “inhibition of CYP3A4” value (CYP3A4) was “did not inhibit”, the “arrhythmia, ECG, blood pressure and body temperature parameters” value (Beagle dogs) was “no drug-related arrhythmia or changes” and the “mice bone marrow micronucleus test result” value (mice bone marrow) was “negative”. For the same compound, the “reverse mutation assay (Ames test) result” value (salmonella typhimurium) was “negative”.
